# In paper PMC8302244 (CPT: Pharmacometrics & Systems Pharmacology, 2021):
# Columns and labels:
# [1] = cited from earlier work
# CYP3A4 mRNA = settings: primary human hepatocytes, up to 300 μM; ref unpublished data on file; cited from earlier work
# [2] = Semimechanistic population PK model
# [3] = Predicted individual exposure metrics
# [4] = test system: human cell lines derived from NC, SCLC, CRPC, TNBC, ER+BC and GIST; settings: cited from earlier work
# [5] = final model Run 32, power estimate of covariate effect
# [6] = Besylate substudy—80 mg q.d., W1D1
# [7] = Besylate substudy—80 mg q.d., W3D4
structure (smiles),measurement,setting,value
COc1ccc2c(c1)C(c1ccc(Cl)cc1)=N[C@@H](CC(N)=O)c1nnc(C)n1-2 [GSK3529246],free fraction in plasma,[1],approximately 0.2
same,donors with concentration‐dependent increase in CYP3A4 mRNA,CYP3A4 mRNA,one donor
same,GSK3529246 central volume of distribution mV1/F,[2]; final model Run 32,62.1 L
same,GSK3529246 clearance mCL/F,[2]; final model Run 32,12.8 L/h
same,GSK3529246 transit rate mka,[2]; final model Run 32,11.5 h⁻¹
same,AST effect on mCL/F,[2]; [5],−0.194
same,Weight effect on V1/F and mV1/F,[2]; [5],0.717
same,IIV on GSK3529246 transit rate ωmka2,"[2]; final model Run 32, variance",0.488
same,AUC0–24 Mean,[3]; [6],3110.0 ng/mL
same,Cmax Mean,[3]; [6],316.0 ng/mL
same,Cmin Mean,[3]; [6],34.7 ng/mL
same,AUC0–24 Mean,[3]; [7],5890.0 ng/mL
same,Cmax Mean,[3]; [7],469.0 ng/mL
same,Cmin Mean,[3]; [7],89.6 ng/mL
same,AUC0–24 Mean,"[3]; Part 1—40 mg b.i.d., W1D1",1860.0 ng/mL
same,Cmax Mean,"[3]; Part 1—40 mg b.i.d., W1D1",222.0 ng/mL
same,Cmin Mean,"[3]; Part 1—40 mg b.i.d., W1D1",94.5 ng/mL
same,AUC0–24 Mean,"[3]; Part 1—40 mg b.i.d., W3D4",5810.0 ng/mL
same,Cmax Mean,"[3]; Part 1—40 mg b.i.d., W3D4",365.0 ng/mL
same,Cmin Mean,"[3]; Part 1—40 mg b.i.d., W3D4",128.0 ng/mL
same,AUC0–24 Mean,"[3]; Part 1—60 mg q.d., W1D1",2640.0 ng/mL
same,Cmax Mean,"[3]; Part 1—60 mg q.d., W1D1",296.0 ng/mL
same,Cmin Mean,"[3]; Part 1—60 mg q.d., W1D1",21.3 ng/mL
same,AUC0–24 Mean,"[3]; Part 1—60 mg q.d., W3D4",4240.0 ng/mL
same,Cmax Mean,"[3]; Part 1—60 mg q.d., W3D4",379.0 ng/mL
same,Cmin Mean,"[3]; Part 1—60 mg q.d., W3D4",57.7 ng/mL
same,AUC0–24 Mean,"[3]; Part 1—80 mg q.d., W1D1",3230.0 ng/mL
same,Cmax Mean,"[3]; Part 1—80 mg q.d., W1D1",355.0 ng/mL
same,Cmin Mean,"[3]; Part 1—80 mg q.d., W1D1",65.8 ng/mL
same,AUC0–24 Mean,"[3]; Part 1—80 mg q.d., W3D4",4730.0 ng/mL
same,Cmax Mean,"[3]; Part 1—80 mg q.d., W3D4",448.0 ng/mL
same,Cmin Mean,"[3]; Part 1—80 mg q.d., W3D4",66.1 ng/mL
same,AUC0–24 Mean,"[3]; Part 1—100 mg q.d., W1D1",3910.0 ng/mL
same,Cmax Mean,"[3]; Part 1—100 mg q.d., W1D1",383.0 ng/mL
same,Cmin Mean,"[3]; Part 1—100 mg q.d., W1D1",46.8 ng/mL
same,AUC0–24 Mean,"[3]; Part 1—100 mg q.d., W3D4",6970.0 ng/mL
same,Cmax Mean,"[3]; Part 1—100 mg q.d., W3D4",567.0 ng/mL
same,Cmin Mean,"[3]; Part 1—100 mg q.d., W3D4",120.0 ng/mL
same,AUC0–24 Mean,"[3]; Part 2—75 mg q.d., W1D1",2720.0 ng/mL
same,Cmax Mean,"[3]; Part 2—75 mg q.d., W1D1",325.0 ng/mL
same,Cmin Mean,"[3]; Part 2—75 mg q.d., W1D1",57.5 ng/mL
same,AUC0–24 Mean,"[3]; Part 2—75 mg q.d., W3D4",5010.0 ng/mL
same,Cmax Mean,"[3]; Part 2—75 mg q.d., W3D4",431.0 ng/mL
same,Cmin Mean,"[3]; Part 2—75 mg q.d., W3D4",82.7 ng/mL
CCNC(=O)C[C@@H]1N=C(c2ccc(Cl)cc2)c2cc(OC)ccc2-n2c(C)nnc21 [Molibresib],proliferation of human cancer cell lines,[4],inhibits the proliferation
